The results in this text go back to patent US5399553A, “Tricyclic compound or salts thereof, method for producing the same and anti-microbial agent containing the same” (Wakunaga Seiyaku Kabushiki Kaisha, priority 1990, dated 1995).

The term MIC denotes the least concentration at which growth counts as inhibited. Read a high MIC as a less susceptible organism.

Series [1] can be described thus: Recovery in bile after oral administration (absorption and excretion). It is filed as in vivo, rats. The following applies: 20 mg/kg, rat, prepared as for urine (20 mg/10 ml/kg), disk method, read-out: Excretion Rate In Bile. On the procedure:
(§1) The absorbability and excretion after oral administration of the compounds, of the present invention were tested by measuring recovery in urine and in bile as follows.
A subject compound was prepared in the same manner as the recovery in urine and was orally administrated to the rats and bile was collected by using a polyethylene tube inserted into the choledochus in 24 hours. The concentration of the subject compound in the bile sample was examined in the same manner as the recovery in urine to obtain an excretion rate in bile for 24 hours.

Series [2] concerns S. aureus 209p (IFO 12732). The series is described as follows: Antimicrobial activity, minimum inhibitory concentration (MIC), S. aureus 209p. The note with it: Staphylococcus aureus. Type of series: cell-based. On the procedure:
(§2) The minimum inhibitory concentration (MIC: μg/ml) of typical compounds represented by general formula (1) of the present invention is measured by the standard method of Japanese literature "Chemotherapy, Volume 29, No. 1, pp. 76-79, 1981". The results are shown in Table 1 in which compound numbers are the same as those indicated in Examples.

The subject of the next series is P. aeruginosa (IFO 3445). The series is described as follows: Antimicrobial activity, minimum inhibitory concentration (MIC), P. aeruginosa. Type of series: cell-based. The note with it: Pseudomonas aeruginosa, IFO3445. Here is the method:
as §2

In series [3] the test system is E. coli NIH JC-2 (IFO 12734). The series is described as follows: Antimicrobial activity, minimum inhibitory concentration (MIC), E. coli NIH JC-2. It is filed as cell-based. The following applies: Escherichia coli, IFO12734. Here is the method: as §2
Series [4] in a line: Recovery in urine after oral administration (absorption and excretion). It is filed as in vivo, male JCL-SD rats. The following applies: 20 mg/kg, rat, 20 mg/10 ml/kg in 0.5% methylcellulose, disk method, read-out: Excretion Rate In Urine. On the procedure: as §1
To a group of three male JCL-SD rats (6 weeks old) fasted overnight, a subject compound was prepared to 20 mg/10 ml/kg with 0.5% of methylcellulose solution and was orally administrated. The sampling was carried out by collecting urine in 0 to 6 hours and 6 to 24 hours. The concentration of the subject compound in the urine was examined by a disk method by using Bacillus subtilis ATCC 33 as a testing bacillus to obtain an excretion rate in urine for 24 hours.

Structures are written as SMILES. Values after ≈ are worked out from the molar mass of the structure shown.

`C[C@H]1CN(c2c(F)cc3c(=O)c(C(=O)O)cn4c3c2CCN4C)C[C@H]1N` (single isomer, unassigned) [Compound 30, 4-(cis (-) 3-Amino-4-methylpyrrolidin-1-yl)-5-fluoro-2,3-dihydro-1-methyl-7-oxo-1H,7H-pyrido[3,2,1-ij]cinnoline-8-carboxylic acid]: the dose excreted at 24 h was 3.8% in series [1] and 59.7% in series [4]. Besides, the minimal inhibitory concentration (MIC) in series [2] came out at 0.1 µg/mL (≈ 0.277 µM); against P. aeruginosa (IFO 3445), 0.2 µg/mL (≈ 0.555 µM); in series [3] it was 0.025 µg/mL (≈ 0.0694 µM).
For the molecule `CN1CCc2c(OCC3(N)CC3)c(F)cc3c(=O)c(C(=O)O)cn1c23` [Compound 73], the MIC in series [2] worked out at 0.78 µg/mL (≈ 2.25 µM); in the series on P. aeruginosa (IFO 3445) it was 0.78 µg/mL (≈ 2.25 µM); in series [3], 0.1 µg/mL (≈ 0.288 µM).
